# In US20230042936A1, “PYRIDO[2,3-d]PYRIMIDIN-7(8H)-ONES AS CDK INHIBITORS” (PROSENESTAR LLC, priority 2020, published 2023):
# Where two headings read alike, the source gives them in different places.
# How the values were obtained:
# PIM1 = PIM1 (Homo sapiens, UniProt P11309); assay: Kinase profiling; format: biochemical; details: 10 semi-logarithmic dilutions from 50 μM, singlicate
# CDC7/DBF4 = CDC7/DBF4 (Homo sapiens, UniProt O00311); assay: Kinase profiling; format: biochemical
# CDK12wt/CycK = CDK12wt/CycK (Homo sapiens, UniProt Q9NYV4); assay: Kinase profiling; format: biochemical; details: 10 semi-logarithmic dilutions from 50 μM, singlicate
# CDK19/CycC = CDK19/CycC (Homo sapiens, UniProt Q9BWU1); assay: Kinase profiling; format: biochemical; details: 10 semi-logarithmic dilutions from 50 μM, singlicate
# CDK19/CycC, sequence (Q9BWU1 whole entry): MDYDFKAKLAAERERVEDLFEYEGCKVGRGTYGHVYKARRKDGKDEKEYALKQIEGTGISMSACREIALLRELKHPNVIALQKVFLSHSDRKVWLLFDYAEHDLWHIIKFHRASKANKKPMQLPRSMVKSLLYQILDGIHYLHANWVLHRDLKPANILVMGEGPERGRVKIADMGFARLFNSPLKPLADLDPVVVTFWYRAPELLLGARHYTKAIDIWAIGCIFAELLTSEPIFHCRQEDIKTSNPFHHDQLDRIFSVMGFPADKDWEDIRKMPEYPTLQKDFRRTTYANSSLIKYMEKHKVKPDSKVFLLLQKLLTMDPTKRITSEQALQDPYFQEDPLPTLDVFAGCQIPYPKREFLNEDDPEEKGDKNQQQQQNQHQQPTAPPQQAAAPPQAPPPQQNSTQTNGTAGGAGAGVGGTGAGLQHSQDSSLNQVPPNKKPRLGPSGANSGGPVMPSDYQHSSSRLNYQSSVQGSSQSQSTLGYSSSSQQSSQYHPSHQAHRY
# CDK19/CycC, sequence (P24863 whole entry partner): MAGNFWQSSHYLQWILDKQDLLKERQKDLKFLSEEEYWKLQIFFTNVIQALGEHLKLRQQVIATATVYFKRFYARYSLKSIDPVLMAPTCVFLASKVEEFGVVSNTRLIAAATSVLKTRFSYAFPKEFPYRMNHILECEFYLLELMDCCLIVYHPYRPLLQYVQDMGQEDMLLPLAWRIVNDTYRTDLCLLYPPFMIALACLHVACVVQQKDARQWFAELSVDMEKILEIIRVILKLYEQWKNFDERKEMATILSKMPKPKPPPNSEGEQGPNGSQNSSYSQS
# DYRK2 = target: T1, DYRK2 (Homo sapiens, UniProt Q92630); assay: Kinase profiling; format: biochemical
# T1 sequence (Q92630 1-601): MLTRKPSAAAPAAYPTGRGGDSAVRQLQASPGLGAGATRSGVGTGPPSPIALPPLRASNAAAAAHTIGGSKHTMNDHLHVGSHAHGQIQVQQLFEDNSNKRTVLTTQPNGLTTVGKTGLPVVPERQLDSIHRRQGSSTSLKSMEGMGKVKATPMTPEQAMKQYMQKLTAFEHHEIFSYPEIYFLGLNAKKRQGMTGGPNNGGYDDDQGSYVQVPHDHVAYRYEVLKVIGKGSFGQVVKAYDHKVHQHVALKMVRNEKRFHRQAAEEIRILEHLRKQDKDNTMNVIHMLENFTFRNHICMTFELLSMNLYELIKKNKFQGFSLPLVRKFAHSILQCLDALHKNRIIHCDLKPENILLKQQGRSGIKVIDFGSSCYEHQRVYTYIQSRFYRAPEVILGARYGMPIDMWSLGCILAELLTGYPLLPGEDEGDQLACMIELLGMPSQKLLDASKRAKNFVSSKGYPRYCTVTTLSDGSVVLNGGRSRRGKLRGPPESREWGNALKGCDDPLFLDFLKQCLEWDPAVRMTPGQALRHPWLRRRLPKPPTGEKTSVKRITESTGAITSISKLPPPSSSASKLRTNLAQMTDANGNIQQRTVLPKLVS
# CDK8/CycC = CDK8/CycC (Homo sapiens, UniProt P49336); assay: Kinase profiling; format: biochemical; details: 10 semi-logarithmic dilutions from 50 μM, singlicate
# CDK3/CycE1 = CDK3/CycE1 (Homo sapiens, UniProt Q00526); assay: Kinase profiling; format: biochemical; details: 10 semi-logarithmic dilutions from 50 μM, singlicate
# CDK3/CycE1, sequence (Q00526 whole entry): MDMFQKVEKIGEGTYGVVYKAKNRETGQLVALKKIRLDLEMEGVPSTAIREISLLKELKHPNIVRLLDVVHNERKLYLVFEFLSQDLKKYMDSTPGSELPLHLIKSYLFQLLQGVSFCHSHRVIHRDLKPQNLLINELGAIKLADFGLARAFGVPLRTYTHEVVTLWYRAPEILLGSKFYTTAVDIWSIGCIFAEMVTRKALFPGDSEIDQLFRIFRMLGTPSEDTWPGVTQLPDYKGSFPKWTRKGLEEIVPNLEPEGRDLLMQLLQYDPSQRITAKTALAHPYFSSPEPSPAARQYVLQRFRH
# CDK3/CycE1, sequence (P24864 whole entry partner): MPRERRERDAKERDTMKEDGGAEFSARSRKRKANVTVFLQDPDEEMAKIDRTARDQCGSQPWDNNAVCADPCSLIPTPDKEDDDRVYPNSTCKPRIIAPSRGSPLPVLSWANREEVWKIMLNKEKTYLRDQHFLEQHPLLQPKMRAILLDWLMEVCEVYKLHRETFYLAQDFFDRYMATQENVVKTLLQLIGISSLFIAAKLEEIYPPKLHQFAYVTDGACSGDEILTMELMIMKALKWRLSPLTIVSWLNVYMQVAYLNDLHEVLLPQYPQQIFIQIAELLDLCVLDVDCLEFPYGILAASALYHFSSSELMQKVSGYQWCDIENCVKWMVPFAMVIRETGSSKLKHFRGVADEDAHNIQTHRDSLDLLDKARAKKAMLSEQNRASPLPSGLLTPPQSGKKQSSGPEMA
# CDK5/p35NCK = CDK5/p35NCK (Homo sapiens, UniProt Q00535); assay: Kinase profiling; format: biochemical; details: 10 semi-logarithmic dilutions from 50 μM, singlicate
# CDK3/CycC = CDK3/CycC (Homo sapiens, UniProt Q00526); assay: Kinase profiling; format: biochemical; details: 10 semi-logarithmic dilutions from 50 μM, singlicate
# [1] = tested on: H460 lung carcinoma cell line; assay: Proliferation assay: determination of GI50; format: cell-based, human; details: Table 3, 48 h, n = 2 independent experiments
# Protocol: (§1) The following human tumor cell lines, all Retinoblastoma (Rb)-proficient, were used in this study: MDA-MB231 (breast cancer), MDA-MB453 (breast cancer), U87MG (glioblastoma) and H460 (lung cancer). MDA-MB468 (breast cancer) and SW1783 (glioblastoma) Rb-deficient cells were also included in the study, as well as the MCF10A non-transformed mammary epithelial cell line. Tumor cell lines were maintained in DMEM or RPMI-1640 medium, depending on the cell line, supplemented with 10% FBS. MCF10A cells were grown in complete mammary epithelial growth medium (MEGM, Lonza). Cell lines were authenticated by short tandem repeat (STR) loci profiling with the GenePrint® 10 System (Promega).
# (§2) All human cancer cell lines (Table 2) were obtained from the American Type Culture Collection, and were maintained in DMEM (Hyclone) or RPMI-1640 medium (Sigma) supplemented with 10% fetal bovine serum (Sigma). Non-transformed MCF10 cell line was maintained in MEGM Mammary Epithelial Cell Growth Medium (Lonza). Immortalized mouse embryonic fibroblasts (MEFs) were maintained in DMEM with 10% fetal bovine serum.
# (§3) 48 h later cells were fixed with PFA 4% for 15 minutes, stained with 10 μg/ml Hoechst 33342 (Molecular Probes, Thermo Fisher) for 30 minutes and washed twice with PBS. Cells were imaged in a high content screening system (Opera Phoenix™, Perkin Elmer) using a 20× dry objective (30 fields/well). Cell counts were determined by the Opera software (Perkin Elmer) and data were further processed with SPSS software. GI50 was calculated by estimating the absolute IC50 using dose-response inhibition tool in Prism6 (Graphpad Software Inc.).
# [2] = tested on: MDA-MB-231 breast carcinoma cell line; assay: Proliferation assay: determination of GI50; format: cell-based, human
# Protocol: as §1, §2, §3
# [3] = tested on: MCF10 non-transformed mammary epithelial cell line; assay: Proliferation assay: determination of GI50; format: cell-based, human; details: Table 3, 48 h, n = 2 independent experiments
# Protocol: as §1, §2, §3
# [4] = tested on: U87MG glioblastoma cell line; assay: Proliferation assay: determination of GI50; format: cell-based, human
# Protocol: as §1, §2, §3
# [5] = tested on: MDA-MB-231 human breast cancer cells; assay: Cell cycle analysis (DNA content, flow cytometry); format: cell-based; details: GI50 concentration; FIG. 1
# Protocol: FIG. 1 depicts DNA content profiles of MDA-MB-231 human breast cancer cells treated with subject compounds or commercial CDK inhibitors, showing the percentage of cells at the different cell cycle phases after 48 hours of the treatments indicated. (n=6 technical replicates).
# Cells were collected by trypsinization, washed with PBS and fixed with cold 70% ethanol. Cells were treated with 250 μg/ml RNase (Qiagen) for 30 minutes at 37° C. and stained with 10 μg/ml Propidium Iodide (Sigma). Cell cycle was analyzed by flow cytometry using a LSR Fortessa Analyzer. Cell cycle profiles were generated and analyzed with FlowJo software.
# Cells were collected by tripsinization at several times after treatment with the indicated compounds and, then, fixed with cold 70% Ethanol. DNA content was determined by staining with propidium iodide (10 μg/ml, Sigma Aldrich). Data acquisition was performed with a LSR Fortessa analyzer (BD Biosciences) and analysed using FlowJo software.
# CDK7/CycH/MAT1 = CDK7/CycH/MAT1 (Homo sapiens, UniProt P50613); assay: Kinase profiling; format: biochemical; details: 10 semi-logarithmic dilutions from 50 μM, singlicate
# CDK5/p25NCK = CDK5/p25NCK (Homo sapiens, UniProt Q00535); assay: Kinase profiling; format: biochemical; details: 10 semi-logarithmic dilutions from 50 μM, singlicate
# PCTAIRE1/CycY = PCTAIRE1/CycY (Homo sapiens, UniProt Q00536); assay: Kinase profiling; format: biochemical; details: 10 semi-logarithmic dilutions from 50 μM, singlicate
# AKT1 aa1-480 = target: T2, AKT1 aa1-480 (Homo sapiens, UniProt P31749); assay: Kinase profiling; format: biochemical; details: 10 semi-logarithmic dilutions from 50 μM, singlicate
# T2 construct: AKT1 aa1-480
# T2 sequence (P31749 whole entry, the tested form may be a part): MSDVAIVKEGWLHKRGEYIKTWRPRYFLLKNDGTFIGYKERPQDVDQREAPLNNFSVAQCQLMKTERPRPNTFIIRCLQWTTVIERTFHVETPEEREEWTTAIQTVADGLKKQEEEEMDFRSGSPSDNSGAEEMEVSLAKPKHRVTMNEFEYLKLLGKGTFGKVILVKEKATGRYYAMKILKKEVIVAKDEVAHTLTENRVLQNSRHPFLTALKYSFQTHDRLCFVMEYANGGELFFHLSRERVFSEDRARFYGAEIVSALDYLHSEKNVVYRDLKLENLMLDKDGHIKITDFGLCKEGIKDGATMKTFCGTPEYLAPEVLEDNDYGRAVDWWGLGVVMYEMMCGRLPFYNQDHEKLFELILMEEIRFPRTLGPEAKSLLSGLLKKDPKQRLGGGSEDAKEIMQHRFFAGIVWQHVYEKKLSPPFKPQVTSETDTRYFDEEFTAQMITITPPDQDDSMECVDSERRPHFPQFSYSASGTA
# HIPK2 = HIPK2 (Homo sapiens, UniProt Q9H2X6); assay: Kinase profiling; format: biochemical
# HIPK2, sequence (Q9H2X6 whole entry): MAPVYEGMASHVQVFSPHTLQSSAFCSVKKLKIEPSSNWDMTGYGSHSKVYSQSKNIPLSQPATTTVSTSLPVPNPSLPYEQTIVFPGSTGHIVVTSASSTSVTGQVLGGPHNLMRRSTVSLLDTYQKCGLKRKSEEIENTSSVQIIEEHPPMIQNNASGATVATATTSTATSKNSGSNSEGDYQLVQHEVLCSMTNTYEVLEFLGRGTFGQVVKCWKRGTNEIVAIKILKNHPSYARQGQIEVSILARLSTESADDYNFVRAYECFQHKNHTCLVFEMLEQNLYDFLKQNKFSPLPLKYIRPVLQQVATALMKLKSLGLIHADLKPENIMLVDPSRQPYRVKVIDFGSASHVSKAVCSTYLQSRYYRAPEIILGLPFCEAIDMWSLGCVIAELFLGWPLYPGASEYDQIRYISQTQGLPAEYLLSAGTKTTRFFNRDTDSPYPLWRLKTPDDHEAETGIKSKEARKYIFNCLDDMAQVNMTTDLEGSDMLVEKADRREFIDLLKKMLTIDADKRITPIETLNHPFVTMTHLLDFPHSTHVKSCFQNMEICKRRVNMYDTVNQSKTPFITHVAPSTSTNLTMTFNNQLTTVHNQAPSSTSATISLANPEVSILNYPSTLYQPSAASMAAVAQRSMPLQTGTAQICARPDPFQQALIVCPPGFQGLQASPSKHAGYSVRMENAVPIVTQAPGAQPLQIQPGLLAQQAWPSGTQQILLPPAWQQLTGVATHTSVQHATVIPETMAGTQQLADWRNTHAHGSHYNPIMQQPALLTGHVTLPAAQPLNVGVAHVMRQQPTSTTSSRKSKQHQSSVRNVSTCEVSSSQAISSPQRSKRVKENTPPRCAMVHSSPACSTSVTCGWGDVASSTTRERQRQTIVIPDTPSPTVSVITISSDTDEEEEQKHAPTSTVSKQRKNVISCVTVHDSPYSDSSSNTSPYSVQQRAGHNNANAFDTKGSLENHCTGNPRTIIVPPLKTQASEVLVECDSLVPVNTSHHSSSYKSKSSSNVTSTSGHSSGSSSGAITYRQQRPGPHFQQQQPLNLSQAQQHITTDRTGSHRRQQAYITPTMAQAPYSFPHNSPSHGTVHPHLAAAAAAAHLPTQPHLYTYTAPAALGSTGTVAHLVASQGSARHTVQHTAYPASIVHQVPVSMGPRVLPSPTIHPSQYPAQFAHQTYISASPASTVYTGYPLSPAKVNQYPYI
# ERK1 = ERK1 (Homo sapiens, UniProt P27361); assay: Kinase profiling; format: biochemical; details: 10 semi-logarithmic dilutions from 50 μM, singlicate
# ERK1, sequence (P27361 whole entry): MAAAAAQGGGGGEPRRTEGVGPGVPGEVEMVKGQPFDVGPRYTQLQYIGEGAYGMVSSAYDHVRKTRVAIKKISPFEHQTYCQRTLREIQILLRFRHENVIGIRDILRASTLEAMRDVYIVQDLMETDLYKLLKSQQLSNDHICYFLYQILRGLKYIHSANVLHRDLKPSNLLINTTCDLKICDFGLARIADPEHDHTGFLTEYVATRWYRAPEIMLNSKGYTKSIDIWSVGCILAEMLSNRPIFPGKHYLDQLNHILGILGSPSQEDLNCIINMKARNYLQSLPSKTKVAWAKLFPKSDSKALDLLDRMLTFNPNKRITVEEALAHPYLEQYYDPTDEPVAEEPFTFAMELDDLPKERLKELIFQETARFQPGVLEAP
# DYRK1A = DYRK1A (Homo sapiens, UniProt Q13627); assay: Kinase profiling; format: biochemical; details: 10 semi-logarithmic dilutions from 50 μM, singlicate
# Cdk2/4/6_KO MEFs = assay: Cell growth in Cdk-deficient MEFs; format: cell-based, mouse; details: relative cell count day 6 versus day 3; FIG. 4
# Protocol: (§4) Cdk-deficient MEFs were plated in 10-cm dish in triplicate (100,000/well) and treated with the selected compounds at the indicated concentration, based on GI50 previously determined in the MDA-MB-231 cell line. Cells were counted in an optical microscope 3 and 6 days after treatment to estimate the relative cell growth in each condition.
# (§5) To further investigate the relative functional dependence of the subject compounds on CDK2 versus CDK4 or CDK6, the specific effects of PS004, PS006 and PS009 were tested on CDK-deficient mouse embryonic fibroblasts (MEFs) obtained from Cdk2 knock out, Cdk4; Cdk6-double knock out and Cdk2; Cdk4; Cdk6-triple knock out mouse models.
# Cdk4/6_KO MEFs = assay: Cell growth in Cdk-deficient MEFs; format: cell-based, mouse; details: relative cell count day 6 versus day 3; FIG. 4
# Protocol: as §4, §5
# [6] = Metabolic stability in hepatocytes; format: in vitro ADME; details: mouse, 60-90 min test
# [7] = Metabolic stability in microsomes; format: in vitro ADME; details: mouse, 60-90 min test
# [8] = Thermodynamic solubility (pH 7.4); format: physicochemical; details: pH 7.4, aqueous buffer, thermodynamic from solid
# [9] = Permeability Caco-2 cells; format: in vitro ADME; details: human, Caco-2
# Caco-2 cells = assay: Permeability Caco-2 cells; format: in vitro ADME
# [10] = Kinetic solubility (pH 7.4); format: physicochemical; details: pH 7.4, aqueous buffer, kinetic from dmso stock
# [11] = tested on: MDA-MB-468 breast carcinoma cell line (pRB mutant); assay: Proliferation assay: determination of GI50; format: cell-based; details: Homo sapiens, Table 4, n = 2, read-out: Growth inhibition GI50, Breast cancer pRB Mutant MDA-MB-468
# Protocol: as §1, §2, §3
# [12] = tested on: SW1783 glioblastoma cell line (pRB mutant); assay: Proliferation assay: determination of GI50; format: cell-based; details: Homo sapiens, Table 4, n = 4, read-out: Growth inhibition GI50, Glioblastoma pRB Mutant SW1783
# Protocol: as §1, §2, §3
# [13] = not told
# [14] = Metabolic stability in hepatocytes; format: in vitro ADME; details: human, 60-90 min test
# [15] = Metabolic stability in microsomes; format: in vitro ADME; details: human, 60-90 min test
# [16] = 10 semi-logarithmic dilutions from 50 μM, singlicate, read-out: IC50 CDC7/DBF4
# [17] = 10 semi-logarithmic dilutions from 50 μM, singlicate, read-out: IC50 DYRK2
# [18] = Homo sapiens, MDA-MB-231, Table 3, 48 h, n = 3 independent experiments, read-out: GI50 MDA-MB231
# [19] = Homo sapiens, U-87 MG, Table 3, 48 h, n = 3 independent experiments, read-out: GI50 U87MG
# [20] = 10 semi-logarithmic dilutions from 50 μM, singlicate, read-out: IC50 HIPK2
# CDC7/DBF4, sequence (O00311 whole entry): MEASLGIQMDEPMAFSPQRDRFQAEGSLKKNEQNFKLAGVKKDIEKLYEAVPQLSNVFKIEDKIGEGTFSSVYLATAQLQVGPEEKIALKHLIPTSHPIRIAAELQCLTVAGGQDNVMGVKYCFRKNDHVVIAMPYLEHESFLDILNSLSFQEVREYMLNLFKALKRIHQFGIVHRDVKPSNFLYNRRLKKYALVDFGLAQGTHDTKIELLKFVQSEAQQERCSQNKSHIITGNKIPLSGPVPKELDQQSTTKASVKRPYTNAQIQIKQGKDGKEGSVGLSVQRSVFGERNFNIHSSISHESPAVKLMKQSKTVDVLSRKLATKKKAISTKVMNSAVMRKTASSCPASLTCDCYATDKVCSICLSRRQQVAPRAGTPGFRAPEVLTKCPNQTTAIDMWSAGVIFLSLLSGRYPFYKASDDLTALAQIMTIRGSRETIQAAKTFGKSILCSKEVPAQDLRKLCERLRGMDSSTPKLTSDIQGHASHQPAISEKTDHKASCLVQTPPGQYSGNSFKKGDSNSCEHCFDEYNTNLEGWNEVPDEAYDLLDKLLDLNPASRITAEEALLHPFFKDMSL
# CDC7/DBF4, sequence (Q9UBU7 whole entry partner): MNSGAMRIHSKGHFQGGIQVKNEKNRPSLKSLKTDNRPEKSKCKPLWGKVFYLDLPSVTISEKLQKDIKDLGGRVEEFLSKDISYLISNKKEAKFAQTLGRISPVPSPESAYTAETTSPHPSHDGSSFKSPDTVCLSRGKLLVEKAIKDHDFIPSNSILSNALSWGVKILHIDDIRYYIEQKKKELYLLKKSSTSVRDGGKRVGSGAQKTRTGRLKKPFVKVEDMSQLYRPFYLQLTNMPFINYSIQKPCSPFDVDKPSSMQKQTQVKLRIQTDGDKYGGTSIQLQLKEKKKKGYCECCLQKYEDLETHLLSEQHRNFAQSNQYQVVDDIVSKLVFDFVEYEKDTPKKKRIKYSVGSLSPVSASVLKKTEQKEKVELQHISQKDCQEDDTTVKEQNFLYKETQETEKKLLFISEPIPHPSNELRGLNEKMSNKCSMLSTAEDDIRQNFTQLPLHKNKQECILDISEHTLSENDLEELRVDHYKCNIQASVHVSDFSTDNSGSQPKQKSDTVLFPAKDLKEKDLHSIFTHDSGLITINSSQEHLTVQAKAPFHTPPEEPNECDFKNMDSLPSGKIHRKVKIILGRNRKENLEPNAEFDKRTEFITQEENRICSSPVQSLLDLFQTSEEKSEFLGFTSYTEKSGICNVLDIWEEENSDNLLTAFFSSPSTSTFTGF
SMILES,IC50 (CDC7/DBF4; [16]),IC50 (CDK12wt/CycK),IC50 (CDK19/CycC),IC50 (DYRK2; [17]),IC50 (CDK8/CycC),IC50 (CDK3/CycE1),IC50 (CDK3/CycC),"GI50 ([1]; Homo sapiens, NCI-H460)","GI50 [2, 18]","GI50 ([3]; Homo sapiens, MCF10)","GI50 [4, 19]",IC50 (AKT1 aa1-480),IC50 (HIPK2; [20]),IC50 (ERK1),also measured
"CN(C)C(=O)c1cc2cnc(Nc3ccc(N4CCNCC4)cn3)nc2n1C1CCCC1 [Ribociclib, reference compound]",318 nM,495 nM,362 nM,13.9 nM,2020 nM,1660 nM,323 nM,1470 nM,700 nM,540 nM,260 nM,> 50000 nM,39.7 nM,> 50000 nM,IC50 (PIM1): 24.4 nM; IC50 (CDK5/p35NCK): 641 nM; cell cycle arrest by DNA content [5]: robust G0/G1-phase arrest; IC50 (CDK7/CycH/MAT1): 7350 nM; IC50 (CDK5/p25NCK): 2190 nM; IC50 (PCTAIRE1/CycY): 589 nM; IC50 (DYRK1A): 14.5 nM
"CC(=O)c1c(C)c2cnc(Nc3ccc(N4CCNCC4)cn3)nc2n(C2CCCC2)c1=O [Palbociclib, reference compound]",–,–,11800 nM,6910 nM,–,–,–,1320 nM,740 nM,470 nM,430 nM,–,–,–,"cell proliferation of Cdk2; Cdk4; Cdk6-triple knock out MEFs (Cdk2/4/6_KO MEFs): did not show activity; cell proliferation of Cdk4; Cdk6-double knock out MEFs (Cdk4/6_KO MEFs): did not show activity; hepatocyte CLint ([6]; read-out: Metabolic stability, Mouse heptocytes: Clearance): 14.4 µL/min/1e6 cells; half-life ([6]; read-out: Metabolic stability, Mouse heptocytes: t1/2): 1.61 h; microsomal CLint ([7]; read-out: Metabolic stability, Mouse microsomes: Clearance): 18.3 µL/min/mg; half-life ([7]; read-out: Metabolic stability, Mouse microsomes: t1/2): 1.26 h; solubility thermodynamic [8]: 2.32 µM; Papp [9]: 0.4 ×10⁻⁶ cm/s; Permeability Caco-2 cells: Permeability, grade in words (Caco-2 cells): (low); solubility kinetic [10]: 19.9 µM; GI50 [11]: 9500 nM; GI50 [12]: 19900 nM; GI50 ([2]; Homo sapiens, MDA-MB-231, Table 4, n = 4, read-out: Growth inhibition GI50, Breast cancer pRB Wild-Type MDA-MB-231): 1700 nM; GI50 ([4]; Homo sapiens, U-87 MG, Table 4, n = 4, read-out: Growth inhibition GI50, Glioblastoma pRB Wild-Type U87MG): 5700 nM; Summary: permeability [13]: Low; hepatocyte CLint ([14]; read-out: Metabolic stability, Human hepatocytes: Clearance): < 6.4 µL/min/1e6 cells; half-life ([14]; read-out: Metabolic stability, Human hepatocytes: t1/2): > 3.61 h; microsomal CLint ([15]; read-out: Metabolic stability, Human microsomes: Clearance): 23.6 µL/min/mg; half-life ([15]; read-out: Metabolic stability, Human microsomes: t1/2): 0.98 h"
"O=C1NC(=NCc2cccs2)S/C1=C\c1ccc2ncccc2c1 [RO-3306, reference compound]",–,–,–,–,–,–,–,–,–,–,–,–,–,–,"GI50 [1]: 25600 nM; GI50 ([2]; Table 3, 48 h, n = 3 independent experiments, read-out: GI50 MDA-MB231): 3200 nM; GI50 [3]: 2800 nM; GI50 ([4]; Table 3, 48 h, n = 3 independent experiments, read-out: GI50 U87MG): > 50000 nM"
"CC[C@H](CO)Nc1nc(NCc2ccccc2)c2ncn(C(C)C)c2n1 [Roscovitine, reference compound]",–,–,–,–,–,–,–,–,–,–,–,–,–,–,IC50 (CDC7/DBF4): 42100 nM; IC50 (DYRK2): 38100 nM; IC50 (HIPK2): > 50000 nM
"CCN1CCN(Cc2ccc(Nc3ncc(F)c(-c4cc(F)c5nc(C)n(C(C)C)c5c4)n3)nc2)CC1 [Abemaciclib, reference compound]",> 50000 nM,21000 nM,> 50000 nM,–,> 50000 nM,> 50000 nM,49700 nM,3100 nM,1500 nM,1240 nM,470 nM,> 50000 nM,46400 nM,> 50000 nM,–
